Results on two molecules are retold here after US8207142B2, “Inhibitor of DNA methylation” (priority 2001, dated 2012).

Values joined by “and” are separate entries in the source; they are usually repeats but may differ in a detail not shown here. Identical values can stand only once.

Experiment [1] relates to 10T1/2 cells. The experiment in a line: Induction of a myogenic phenotype (myotube formation) in 10T1/2 cells. In kind it is cell-based, mouse. More on the design: key to Muscle Formation: + representing minimal muscle formation; scored for muscle cells 9-10 days later as + to +++; +++ representing maximal muscle formation. The note with it: for Muscle Formation: 24 hours treatment, scored 9-10 days later; for muscle formation (micrographs, in words): 10T1/2 cells, approximately 9-10 days after drug treatment. Here is the method: Cells were plated (3×10^5 cells/100-mm dish) and treated 24 hours later with the indicated concentrations of compounds. The medium was either changed 24 hours or 48 hours after drug treatment. Myotube formation was assayed in 10T1/2 cells as previously described (Constantinides et al., Nature 267:364-366, 1977). […] The ability of Zebularine to cause 10T1/2 cells to undergo the myogenic switch was therefore tested (FIG. 7).

In experiment [2] the test system is p16 exon 2. Kind of experiment: Ms-SNuPE quantitation of DNA methylation in T24 cells, p16 exon 2. In kind it is cell-based, human. The note with it: for p16 Exon 2 Methylation (%): control 96. Here is the method:
(§1) The average methylation at defined CpG sites was quantitated using a Ms-SNuPE assay, as described by Gonzalgo and Jones (Nucleic Acids Res. 25:2529-2531, 1997) and U.S. Pat. No. 6,251,594. Briefly, genomic DNA (˜4 μg) was digested overnight with 4 units of EcoRI (Boehringer Mannheim) (p16 promoter/exon 1 and p16 exon 2; FIG. 9A) or with 4 units of RsaI (Boehringer Mannheim) (P3; FIG. 9B) to cut outside the region of interest.
(§2) After standard treatment with sodium bisulfite, a PCR product of the region was generated as template for top-strand methylation analysis. The sequences of the primers used for bisulfite-treated DNA amplification were as follows: […]
p16 exon 2: 94° C. for 3 minutes, 94° C. for 1 minute, 62° C. for 45 seconds, and 72° C. for 45 seconds for 40 cycles, with a final extension step at 72° C. for 10 minutes.
(§3) Duplicates of 4 μl of template were then added to 6 μl of mixture consisting of 1× PCR buffer, 1 μM final concentration primers, 1 μCi of [^32P]dCTP or dTTP, and 1 unit 1:1 Taq/TaqStart antibody (Clontech, Palo Alto, Calif.). Single nucleotide extension involved incubation at 95° C. for 1 minute, then 50° C. for 2 minutes, and finally 72° C. for 1 minute (p16 promoter/exon1 and P16 exon 2) and 95° C. for 1 minute, then 46° C. for 30 seconds, and finally 72° C. for 20 seconds (P3). The sequences for SNuPE primers were as follows: […]
(§4) After briefly spinning down the tubes, 4 μl of stop solution were added to the 10-μl reaction volume, and the samples were boiled for 5 minutes at 95° C. before loading 1.5 μl onto a 15% denaturing polyacrylamide gel (7 M urea). The gel was run at 90 W for 1.5 hours and then dried at 80° C. for 40 minutes. The gel was exposed to a phosphorimaging cassette for quantitation of the ratio of [^32P]dCTP versus [^32P]dTTP incorporation, and the quantitation of the percent methylation was averaged from three separate CpG sites. The gel was then exposed to BioMax MR film (Kodak) to record experimental results.

Experiment [3] concerns p16 gene expression in T24 cells. The experiment in a line: RT-PCR analysis of p16 expression in T24 cells. In kind it is cell-based, human. How it is done:
The T24 cell line was obtained from the American Type Culture Collection (Rockville, Md.) and cultured in DMEM supplemented with 10% heat-inactivated fetal calf serum and 100 U/ml penicillin-streptomycin. Cultures were grown in a humidified incubator at 37° C. in an atmosphere of 5% CO2 in air.
Cells were plated (3×10^5 cells/100-mm dish) and treated 24 hours later with the indicated concentrations of compounds. The medium was either changed 24 hours or 48 hours after drug treatment.
DNA and RNA were isolated three days after treatment using the NucleoBond RNA/DNA Midi Kit (Clontech Laboratories, Inc., Palo Alto, Calif.).
Total RNA (˜10 μg) was reverse-transcribed using the following reagents: 100 units RNAsin (Promega Corp., Madison, Wis.), 0.1 M DTT (Life Technologies, Inc.), 1000 units of MMLV-RT (Life Technologies, Inc.), 1 mM deoxynucleotide triphosphates (Boehringer Mannheim, Germany), 75 μg/ml BSA, 1× MMLV-RT buffer (Life Technologies, Inc.), and 0.025 ODU Random Hexamers (Amersham-Pharmacia Biotech, Piscataway, N.J.). The reaction mixture was incubated for 10 minutes at 25° C., 45 minutes at 42° C., 3 minutes at 90° C., and chilled for 5 minutes at 4° C., during which time 1.25 μl of MMLV-RT (200 U/μl) were added and the sample then incubated for 45 minutes at 42° C., 10 minutes at 75° C., and stored at −20° C.
cDNA was amplified with primers specific for either p16 or GAPDH. Briefly, PCR reactions were performed in 25-μl volumes at 94° C. for 3 minutes, 28 cycles at 94° C. for 1 minute, 56° C. for 30 seconds, 72° C. for 40 seconds, and a final extension step at 72° C. for 5 min (p16 amplification), and 94° C. for 1 minute, 19 cycles at 94° C. for 1 minute, 58° C. for 30 seconds, 72° C. for 45 seconds, and a final extension step at 72° C. for 2 minutes (GAPDH amplification).
PCR amplifications were performed with cDNA template concentration equivalent to 100 ng of RNA in 10% DMSO. All reactions were analyzed in the linear range of amplification. PCR products were resolved on 2% agarose gels and subsequently transferred to a nylon membrane (Zetaprobe; Bio-Rad, Richmond, Calif.) under alkaline conditions. All blots were hybridized with a γ-^32P-labeled internal oligonucleotide probe, using protocols previously described (Xiong and Laird, Nuc. Acids Res. 25:2532-2534, 1997).
Since 5-Aza-CdR has been shown previously to induce p16 expression in a dose-dependent manner (Bender et al., Cancer Res. 58:95-101, 1998), the two ribonucleoside analogs 5-Aza-CR and Zeb were examined to determine their abilities to induce p16 expression (FIG. 8). Because Zeb is stable in aqueous solution, the effect of prolonging Zeb treatment on p16 expression was tested by treating these cells with different concentrations of Zeb for either 24 hours or 48 hours. RT-PCR was then performed to determine whether p16 gene was induced by drug treatment.

Experiment [4] has as its system p16 promoter. Kind of experiment: Ms-SNuPE quantitation of DNA methylation in T24 cells, p16 promoter. In kind it is cell-based, human. The following applies: control 96. How it is done:
as §1, §2
p16 promoter/exon 1: 94° C. for 3 minutes, 94° C. for 45 seconds, 67° C. for 45 seconds, and 72° C. for 45 seconds for 40 cycles, with a final extension step at 72° C. for 10 minutes.
as §3, §4

Regarding `Nc1ncn([C@@H]2O[C@H](CO)[C@@H](O)[C@H]2O)c(=O)n1` [5-Aza-CR, 5-azacytidine, reference compound], the “Muscle Formation” value in experiment [1] (1 μM) is given as “++”; in experiment [1] (3 μM) it was “+++”. For the same molecule, the “muscle formation (micrographs, in words)” value in experiment [1] is listed as “formed multinucleated myotubes”. In addition, the “Relative p16 Exon 2 De-methylation (%)” value in experiment [2] (3 μM, 24 hrs) is listed as 8 +/− 2%; in experiment [2] (10 μM, 24 hrs), 15 +/− 1%; in experiment [2] (30 μM, 24 hrs), 25%; in experiment [2] (100 μM, 24 hrs) it was 29%. Further, the “p16 Exon 2 Methylation (%)” value in experiment [2] (3 μM, 24 hrs) was 88 +/− 2%; in experiment [2] (10 μM, 24 hrs), 82 +/− 1%; in experiment [2] (30 μM, 24 hrs), 72 +/− 2%; in experiment [2] (100 μM, 24 hrs) it was 68 +/− 3%. Also, the results for the “p16 expression (RT-PCR)” value in experiment [3] (3 μM) and in experiment [3] (100 μM) were “no expression” and “significant expression”, respectively. Besides, the “highest p16 expression level relative to that with 3 μM 5-Aza-CdR” value in experiment [3] (100 μM 5-Aza-CR vs 3 μM 5-Aza-CdR) is recorded as “one-fifth”. The “p16 Promoter Methylation (%)” value in experiment [4] (3 μM, 24 hrs) is 91% and 91 +/− 1%; in experiment [4] (10 μM, 24 hrs), 83 +/− 2%; in experiment [4] (30 μM, 24 hrs), 73 +/− 2%; in experiment [4] (100 μM, 24 hrs), 68% and 68 +/− 2%.
In the case of `O=c1ncccn1[C@@H]1O[C@H](CO)[C@@H](O)[C@H]1O` [Zebularine, 1-β-ribofuranosyl-1,2-dihydropyrimidin-2-one], the figures for the “Muscle Formation” value in experiment [1] (10 μM) and in experiment [1] (30 μM) were “+” and “++”, respectively. The “muscle formation (micrographs, in words)” value in experiment [1] is on record as “induced muscle formation in 10T1/2 cells”. Further, the “Relative p16 Exon 2 De-methylation (%)” value was 7 +/− 1% in experiment [2] (300 μM, 24 hrs); 16 +/− 2% in experiment [2] (300 μM, 48 hrs); 9 +/− 1% in experiment [2] (500 μM, 24 hrs); 18 +/− 2% in experiment [2] (500 μM, 48 hrs); 20 +/− 2% in experiment [2] (1000 μM, 24 hrs); 24 +/− 1% in experiment [2] (1000 μM, 48 hrs). Also, the “p16 Exon 2 Methylation (%)” value in experiment [2] (300 μM, 24 hrs) was 89 +/− 1%; in experiment [2] (300 μM, 48 hrs) it was 81 +/− 2%; in experiment [2] (500 μM, 24 hrs), 87 +/− 1%; in experiment [2] (500 μM, 48 hrs), 79 +/− 2%; in experiment [2] (1000 μM, 24 hrs), 77 +/− 2%; in experiment [2] (1000 μM, 48 hrs), 73 +/− 1%. Also, the “p16 expression (RT-PCR)” value in experiment [3] (300 μM for 24 hours) is on record as “insufficient to induce p16 expression”; in experiment [3] (300 μM for 48 hours) it was “p16 expression was induced”; in experiment [3] (500 μM for 24 hours), “p16 expression was induced”. Further, the “p16 Promoter Methylation (%)” value was 91% and 91 +/− 1% in experiment [4] (300 μM, 24 hrs); 80% and 80 +/− 1% in experiment [4] (300 μM, 48 hrs); 85% and 85 +/− 1% in experiment [4] (500 μM, 24 hrs); 77% and 77 +/− 2% in experiment [4] (500 μM, 48 hrs); 72% and 72 +/− 2% in experiment [4] (1000 μM, 24 hrs); 68% and 68 +/− 2% in experiment [4] (1000 μM, 48 hrs).
